Consider 15 molecules from US12215111B2, “Imidazopyridazine IL-17 inhibitor compounds” (Janssen Pharmaceutica NV, priority 2021, dated 2025).

SMILES strings stand for the structures.

Assay [1] has as its system IL-17A-induced G-CSF production in human normal keratinocyte (NHK). In words: NHK assay: IL-17A-induced G-CSF production in normal human keratinocytes. The following applies: Homo sapiens, Keratinocyte; IL-17A 5 ng/mL, 24 h at 37° C., G-CSF by HTRF; simple average if tested more than once. Type of assay: cell-based. Here is the method: IL-17A acts directly on keratinocytes through binding to dimeric receptor IL-17RA/RC and drives the production of a number of inflammatory mediators known to be elevated in psoriasis lesional tissue. IL-17A small molecule inhibitors that block the IL-17A to interact with IL-17R would inhibit the IL-17A signaling in its targeted cells such as keratinocytes. The compound functional activity is evaluated for its impact on IL-17A-induced G-CSF production in human normal keratinocyte (NHK).
Adult normal human keratinocytes are cultured in keratinocyte growth medium (Lonza) in a flask till reaching ˜90% confluence, then cells are transferred to a 384-well plate at density of 3000-4000 cell/well. Recombinant human IL-17A (Gibco PHC9174) is pre-incubated with titrated compound or DMSO for 1 h at rt then added to the cell culture plate. The final concentration of IL-17A is 5 ng/mL and DMSO is 0.2%, in the culture containing 5% FBS. Cells are cultured/treated for 24 h at 37° C. Supernatants are collected and G-CSF production is measured through HTRF technology using Human G-CSF Kit (CisBio). G-CSF concentration was extrapolated from the standard curve and IC50 is determined using GraphPad Prism. Cell viability is also evaluated using CellTiter-Glo kit (Promega) and effect of compound on cell viability is compared to DMSO control.

Assay [2] addresses IL-17A(FLAG-Tagged): IL-17RA(His-Tagged) (Homo sapiens, UniProt Q16552, K93Q). The assay is described as follows: IL-17A(FLAG-tagged):IL-17RA(His-tagged) binding disruption Eu-HTRF assay, Protocol 2. Conditions: FLAG tagged IL-17A at 2× final concentration (1 nM); simple average if tested more than once. The text has this:
IL-17A(FLAG-Tagged): IL-17RA(His-Tagged) Binding Disruption Eu-HTRF Assay
An antibody directed against the FLAG tag of IL-17A (SEQ ID NO:1) is labeled with the HTRF donor chromophore (Europium-cryptate). IL-17A is present as a dimer that is “locked into” this quaternary structure due to the formation of loop-spanning […] disulfide bridges. The construct of IL-17RA used in the assay excludes the outer-membrane portion of the receptor and is fused to a C-terminal 10×His tag (SEQ ID NO:2). An antibody directed against the His tag of the IL-17RA chimera is labeled with the HTRF acceptor chromophore (“D2”). The fluorescence-resonance energy transfer (FRET) depends on the vicinity of the donor chromophore to the acceptor, and interruption of the binding between the IL-17A and IL-17RA causes the reduction/loss of FRET. Therefore, this assay allows to evaluate the compound effect on the binding IL-17A and IL-17RA by monitoring the fluorescence intensity of donor vs acceptor. The assay was run using either Protocol 1 or Protocol 2 described below.
Protocol 2. 40 nl of 2-fold serial diluted compound solution for total 22 dilution points is added into each well of a 1536-well, white, low-volume, non-binding plate (Greiner #782904), then 2 μl of FLAG tagged IL-17A at 2× final concentration (1 nM) in solution of PBS+0.01% Triton-X100 is added to each well. The assay plate is briefly centrifuged then incubated for 1 h at rt. A mixed solution is prepared containing 2×5 nM 10HIS×IL-17RA, 2×2.5 nM Eu-anti-FLAG (CISBIO), 2×5 nM D2-anti-HIS (CISBIO) in PBS+0.01% Triton-X100+200 mM Potassium Fluoride (Sigma 60238) and […] of mix is added to each well of the assay plate. The plate is briefly centrifuged then incubated for 2 h at rt. The HTRF intensities at the wavelength of donor (615 nm) and acceptor (665 nm) are measured using BMG Pherastar. The ratio between intensities at two wavelengths is calculated and plotted against the compound concentration and the data is fitted to a one-site competition model to yield IC50 of the compound.

UniProt Q16552, sequence (Q16552 with tags, fused parts or gaps K93Q): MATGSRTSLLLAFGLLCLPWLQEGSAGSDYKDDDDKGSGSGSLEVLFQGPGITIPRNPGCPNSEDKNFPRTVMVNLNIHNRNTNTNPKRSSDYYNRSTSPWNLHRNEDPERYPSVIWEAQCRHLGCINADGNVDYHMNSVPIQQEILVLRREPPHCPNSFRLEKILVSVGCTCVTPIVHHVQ

Regarding `COC[C@H](c1cnn2cc([C@H](CCC(C)(C)C(F)(F)F)NC(=O)c3nonc3C)nc2c1)N1C[C@@](C)(C(F)(F)F)NC1=O` (single isomer, unassigned) [Example 31], the IC50 in assay [1] and in assay [2] was less than 4 µM in each case.
`COCCC(c1cnn2cc([C@@H](NC(=O)c3nonc3C)C3CCC(F)(F)CC3)nc2c1)N1C[C@@H](C(F)(F)F)NC1=O` (single isomer, unassigned) [Example 40, N—((S)—(4,4-Difluorocyclohexyl)(7-((R*)-3-methoxy-1-((S)-2-oxo-4-(trifluoromethyl)imidazolidin-1-yl)propyl)imidazo[1,2-b]pyridazin-2-yl)methyl)-4-methyl-1,2,5-oxadiazole-3-carboxamide]: the IC50 in assay [1] and in assay [2] was less than 4 µM each time.
For `COCCC(c1cnn2cc([C@@H](NC(=O)c3nonc3OC)C3CCC(F)(F)CC3)nc2c1)N1C[C@@H](C(F)(F)F)NC1=O` (single isomer, unassigned) [Example 42, N—((S)—(4,4-Difluorocyclohexyl)(7-((R*)-3-methoxy-1-((S)-2-oxo-4-(trifluoromethyl)imidazolidin-1-yl)propyl)imidazo[1,2-b]pyridazin-2-yl)methyl)-4-methoxy-1,2,5-oxadiazole-3-carboxamide], the half-maximal inhibitory concentration (IC50) in assay [1] and in assay [2] was less than 4 µM in each case.
For the molecule `CC(C)n1nccc1C(=O)N[C@H](c1cn2ncc([C@@H](COC3CC3)N3C[C@@H](C(F)(F)F)NC3=O)cc2n1)C1CCC(F)(F)CC1` (single isomer, unassigned) [Example 43], the IC50 in assay [1] and in assay [2] was less than 4 µM each time.
As to `COCC(c1cnn2cc([C@H](COC(C)(C)C(F)(F)F)NC(=O)c3nonc3C)nc2c1)N1C[C@@](C)(C(F)(F)F)NC1=O` (stereo partly drawn) [Example 23], the IC50 in assay [1] and in assay [2] was less than 4 µM throughout.
As for `COC[C@H](c1cnn2cc([C@@H](NC(=O)c3nonc3C)C3CCC(F)(F)CC3)nc2c1)N1C[C@@H](C2(C#N)CC2)NC1=O` [Example 25, N—((S)-(7-((S)-1-((R)-4-(1-Cyanocyclopropyl)-2-oxoimidazolidin-1-yl)-2-methoxyethyl)imidazo[1,2-b]pyridazin-2-yl)(4,4-difluorocyclohexyl)methyl)-4-methyl-1,2,5-oxadiazole-3-carboxamide], the half-inhibitory concentration (IC50) in assay [1] and in assay [2] was less than 4 µM each time.
In the case of `COC[C@H](c1cnn2cc([C@@H](NC(=O)c3nonc3C)C3CCC(F)(F)CC3)nc2c1)N1C[C@@H](C(F)F)NC1=O` [Example 26, N—((S)—(4,4-Difluorocyclohexyl)(7-((S)-1-((S)-4-(difluoromethyl)-2-oxoimidazolidin-1-yl)-2-methoxyethyl)imidazo[1,2-b]pyridazin-2-yl)methyl)-4-methyl-1,2,5-oxadiazole-3-carboxamide], the IC50 in assay [1] and in assay [2] was less than 4 µM each time.
Regarding `COC[C@H](c1cnn2cc([C@@H](NC(=O)c3nonc3C)[C@@H](C)O[C@H](C)C(F)(F)F)nc2c1)N1C[C@@H](C(F)(F)F)NC1=O` [Example 27, N-((1R,2R)-1-(7-((S)-2-Methoxy-1-((S)-2-oxo-4-(trifluoromethyl)imidazolidin-1-yl)ethyl)imidazo[1,2-b]pyridazin-2-yl)-2-(((R)-1,1,1-trifluoropropan-2-yl)oxy)propyl)-4-methyl-1,2,5-oxadiazole-3-carboxamide], the IC50 in assay [1] and in assay [2] was less than 4 µM throughout.
Regarding `Cc1nonc1C(=O)N[C@@H](CC(C)(C)C(F)(F)F)c1cn2ncc([C@@H](COC3CC3)N3C[C@@H](C(F)(F)F)NC3=O)cc2n1` [Example 37], the half-inhibitory concentration (IC50) in assay [1] and in assay [2] was less than 4 µM in each case.
As for `COCC[C@H](c1cnn2cc([C@@H](NC(=O)c3nonc3C3CC3)C3CCC(F)(F)CC3)nc2c1)N1C[C@@H](C(F)(F)F)NC1=O` [Example 41, 4-Cyclopropyl-N—((S)—(4,4-difluorocyclohexyl)(7-((R)-3-methoxy-1-((S)-2-oxo-4-(trifluoromethyl)imidazolidin-1-yl)propyl)imidazo[1,2-b]pyridazin-2-yl)methyl)-1,2,5-oxadiazole-3-carboxamide], the IC50 in assay [1] and in assay [2] was less than 4 µM each time.
In the case of `Cc1nonc1C(=O)N[C@@H](COC(C)(C)C(F)(F)F)c1cn2ncc([C@@H](COC3CC3)N3C[C@@H](C(F)(F)F)NC3=O)cc2n1` [Example 45], the IC50 in assay [1] and in assay [2] was less than 4 µM in each case.
Take `CC(C)n1nccc1C(=O)N[C@H](c1cn2ncc(CN3CC4(CC(F)(F)C4)NC3=O)cc2n1)C1CCC(F)(F)CC1` [Example 46, (S)—N-((7-((2,2-Difluoro-6-oxo-5,7-diazaspiro[3.4]octan-7-yl)methyl)imidazo[1,2-b]pyridazin-2-yl)(4,4-difluorocyclohexyl)methyl)-1-isopropyl-1H-pyrazole-5-carboxamide]: the IC50 in assay [1] is 4 to 10 µM; in assay [2], less than 4 µM.
Taken in the same sequence, the figures for `COC[C@H](c1cnn2cc([C@H](CCC(C)(C)C(F)(F)F)NC(=O)c3nonc3OC)nc2c1)N1C[C@@](C)(C(F)(F)F)NC1=O` [Example 47, 4-Methoxy-N—((S)-5,5,5-trifluoro-1-(7-((S)-2-methoxy-((S)-4-methyl-2-oxo-4-(trifluoromethyl)imidazolidin-1-yl)ethyl)imidazo[1,2-b]pyridazin-2-yl)-4,4-dimethylpentyl)-1,2,5-oxadiazole-3-carboxamide] were less than 4 µM and less than 4 µM.
Taken in the same sequence, the figures for `Cc1nonc1C(=O)N[C@@H](CCC(C)(C)C(F)(F)F)c1cn2ncc(CN3C[C@@](C)(C(F)(F)F)NC3=O)cc2n1` [Example 48, 4-Methyl-N—((S)-5,5,5-trifluoro-4,4-dimethyl-1-(7-(((S)-4-methyl-2-oxo-4-(trifluoromethyl)imidazolidin-1-yl)methyl)imidazo[1,2-b]pyridazin-2-yl)pentyl)-1,2,5-oxadiazole-3-carboxamide] were less than 4 µM and less than 4 µM.
As to `Cc1nonc1C(=O)N[C@@H](CCC(C)(C)C(F)(F)F)c1cn2ncc(CN3C[C@](C)(C(F)(F)F)NC3=O)cc2n1` [Example 49, 4-Methyl-N—((S)-5,5,5-trifluoro-4,4-dimethyl-1-(7-(((R)-4-methyl-2-oxo-4-(trifluoromethyl)imidazolidin-1-yl)methyl)imidazo[1,2-b]pyridazin-2-yl)pentyl)-1,2,5-oxadiazole-3-carboxamide], the 50% inhibitory concentration (IC50) in assay [1] and in assay [2] was less than 4 µM in each case.
